We go through 3 molecules from ChEMBL document CHEMBL4665632, “Design, synthesis and biological evaluation of pyridone-aminal derivatives as MNK1/2 inhibitors” (Bioorg Med Chem, 2019).

Activity calls are given as the source filed them. No cut-off for these calls is given here.

One series relates to K562. In words: Antiproliferative activity against human K562 cells assessed as reduction in cell viability incubated for 72 hrs by MTT assay. It is filed as functional, cell-based. The note with it: K562, 72 h. For orientation: Formazan colour is commonly taken as a measure of viable cells.
Series [1] concerns the target T1, MAP kinase-interacting serine/threonine-protein kinase 1 (Homo sapiens, UniProt Q9BUB5). Description: Inhibition of recombinant human N-terminal DYKDDDDK-tagged MNK1(1 to 424 residues) expressed in baculovirus expression system using TATKSGSTTKNR as substrate preincubated for 10 mins followed by ATP addition and measured after 40 mins by luminescence based assay.
Target sequence in this assay (Q9BUB5 whole entry, the tested form may be a part): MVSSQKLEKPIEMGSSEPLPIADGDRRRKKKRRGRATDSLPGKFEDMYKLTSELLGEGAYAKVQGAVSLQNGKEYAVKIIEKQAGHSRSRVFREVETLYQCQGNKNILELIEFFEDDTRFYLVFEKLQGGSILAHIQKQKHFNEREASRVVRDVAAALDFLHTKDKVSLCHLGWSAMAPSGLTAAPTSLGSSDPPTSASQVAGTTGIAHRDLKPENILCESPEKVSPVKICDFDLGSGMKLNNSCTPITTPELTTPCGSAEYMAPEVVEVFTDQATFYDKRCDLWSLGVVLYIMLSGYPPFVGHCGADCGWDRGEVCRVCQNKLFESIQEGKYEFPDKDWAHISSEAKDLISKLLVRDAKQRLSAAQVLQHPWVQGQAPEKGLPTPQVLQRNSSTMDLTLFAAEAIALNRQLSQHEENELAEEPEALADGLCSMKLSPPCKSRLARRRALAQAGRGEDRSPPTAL

For series [2], the target named is T2, MAP kinase-interacting serine/threonine-protein kinase 2 (Homo sapiens, UniProt Q9HBH9). Description: Inhibition of recombinant human N-terminal GST-tagged MNK2 (1 to 465 residues) expressed in baculovirus expression system using TATKSGSTTKNR as substrate preincubated for 10 mins followed by ATP addition and measured after 40 mins by luminescence based assay.
Target sequence in this assay (Q9HBH9 whole entry, the tested form may be a part): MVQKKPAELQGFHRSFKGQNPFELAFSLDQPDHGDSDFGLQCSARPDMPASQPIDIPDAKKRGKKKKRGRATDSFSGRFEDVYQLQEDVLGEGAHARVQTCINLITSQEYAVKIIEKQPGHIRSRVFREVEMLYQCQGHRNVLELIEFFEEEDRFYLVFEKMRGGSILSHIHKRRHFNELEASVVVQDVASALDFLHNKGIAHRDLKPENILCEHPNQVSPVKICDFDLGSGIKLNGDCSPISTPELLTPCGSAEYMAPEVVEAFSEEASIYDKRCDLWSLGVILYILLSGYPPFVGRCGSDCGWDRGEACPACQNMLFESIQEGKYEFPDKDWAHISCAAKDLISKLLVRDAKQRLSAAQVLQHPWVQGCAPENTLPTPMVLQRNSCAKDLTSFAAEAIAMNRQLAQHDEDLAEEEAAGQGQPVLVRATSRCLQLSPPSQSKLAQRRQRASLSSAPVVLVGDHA

Series [3] concerns the target T1, MAP kinase-interacting serine/threonine-protein kinase 1. In words: Potency index, ratio of IC50 of eFT508 to IC50 of compound for inhibition of recombinant human N-terminal DYKDDDDK-tagged MNK1(1 to 424 residues) expressed in baculovirus expression system using TATKSGSTTKNR as substrate preincubated for 10 mins followed by ATP addition and measured after 40 mins by luminescence based assay. The following applies: time 50.0 min.
Target sequence in this assay (Q9BUB5 whole entry, looked up, the tested form may be a part): as the sequence (Q9BUB5 whole entry, the tested form may be a part) above

The subject of another series is TMD8. Description: Antiproliferative activity against human TMD8 cells assessed as reduction in cell viability incubated for 72 hrs by MTT assay. It is filed as functional, cell-based. The following applies: TMD8, 72 h.
The next series relates to A549. In words: Antiproliferative activity against human A549 cells assessed as reduction in cell viability incubated at 20 uM for 72 hrs by MTT assay relative to control. Type of series: functional.
A further series relates to MDA-MB-435. Description: Antiproliferative activity against human MDA-MB-435 cells assessed as reduction in cell viability at 20 uM incubated for 72 hrs by MTT assay relative to control. It is filed as functional.
A short description of series [4]: Antiproliferative activity against […] cells assessed as reduction in cell viability at 20 uM incubated for 72 hrs by MTT assay relative to control. It is filed as functional, Mus musculus.
The subject of a further series is MV4-11. In words: Antiproliferative activity against human MV4-11 cells assessed as reduction in cell viability incubated for 72 hrs by MTT assay. The following applies: MV4-11, 72 h. Type of series: functional, cell-based.
The target of series [5] is T1, MAP kinase-interacting serine/threonine-protein kinase 1. Description: Inhibition of MNK1 (unknown origin) at 100 nM incubated for 60 mins by HTRF assay. On the technique in general: Time-resolved FRET reads energy transfer from a long-lived donor to a nearby acceptor.
Target sequence in this assay (Q9BUB5 whole entry, looked up, the tested form may be a part): as the sequence (Q9BUB5 whole entry, the tested form may be a part) above
Series [6] addresses T2, MAP kinase-interacting serine/threonine-protein kinase 2. In words: Inhibition of MNK2 (unknown origin) at 100 nM incubated for 60 mins by HTRF assay.
Target sequence in this assay (Q9HBH9 whole entry, looked up, the tested form may be a part): as the sequence (Q9HBH9 whole entry, the tested form may be a part) above
The subject of a further series is HCT-116. In words: Antiproliferative activity against human HCT-116 cells assessed as reduction in cell viability at 20 uM incubated for 72 hrs by MTT assay relative to control. Type of series: functional.
Series [7] has as its target T2, MAP kinase-interacting serine/threonine-protein kinase 2. Description: Potency index, ratio of IC50 of eFT508 to IC50 of compound for inhibition of recombinant human N-terminal GST-tagged MNK2 (1 to 465 residues) expressed in baculovirus expression system using TATKSGSTTKNR as substrate preincubated for 10 mins followed by ATP addition and measured after 40 mins by luminescence based assay. The following applies: time 50.0 min.
Target sequence in this assay (Q9HBH9 whole entry, looked up, the tested form may be a part): as the sequence (Q9HBH9 whole entry, the tested form may be a part) above

Series [8] is described as follows: Antitumor activity against […] cells xenografted in BALB/c mouse assessed as tumor growth inhibition at 20 mg/kg, ip administered for 14 days relative to control. It is filed as functional. The note with it: 336 h, time 14 day, read-out: TGI. A general note: A xenograft is tissue or cells of one species grown in another, often human tumour cells in immunodeficient mice.

Series [9] deals with Tyrosine-protein kinase BTK (Homo sapiens) (UniProt Q06187). In words: Inhibition of BTK (unknown origin) at 500 nM relative to control.
Sequence of Tyrosine-protein kinase BTK (Homo sapiens) (Q06187 whole entry): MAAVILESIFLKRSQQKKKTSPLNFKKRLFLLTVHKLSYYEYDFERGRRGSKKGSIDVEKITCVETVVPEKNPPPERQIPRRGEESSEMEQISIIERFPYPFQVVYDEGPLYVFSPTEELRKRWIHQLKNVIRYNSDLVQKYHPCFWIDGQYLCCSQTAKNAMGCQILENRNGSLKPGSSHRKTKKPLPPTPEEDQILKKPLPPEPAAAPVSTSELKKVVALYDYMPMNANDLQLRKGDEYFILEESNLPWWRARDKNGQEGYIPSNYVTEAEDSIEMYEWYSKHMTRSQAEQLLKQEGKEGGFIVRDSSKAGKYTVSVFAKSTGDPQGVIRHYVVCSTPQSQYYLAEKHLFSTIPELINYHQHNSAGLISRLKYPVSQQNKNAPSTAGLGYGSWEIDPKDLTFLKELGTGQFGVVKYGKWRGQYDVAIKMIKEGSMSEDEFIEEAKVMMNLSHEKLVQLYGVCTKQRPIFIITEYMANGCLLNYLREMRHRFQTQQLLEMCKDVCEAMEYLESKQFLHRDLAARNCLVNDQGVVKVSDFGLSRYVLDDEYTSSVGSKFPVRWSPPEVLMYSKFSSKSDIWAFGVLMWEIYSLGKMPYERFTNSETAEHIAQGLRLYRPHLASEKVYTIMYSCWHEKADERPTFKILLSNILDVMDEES
In series [10] the target is T3, MAP kinase-interacting serine/threonine-protein kinase 1/2 (Homo sapiens) (UniProt Q9HBH9+Q9BUB5). In words: Inhibition of MNK1/MNK2 in […] cells assessed as reduction in eIF4E phosphorylation incubated for 24 hrs by Western blot analysis. Type of series: cell-based.
The target of series [11] is AMP-activated protein kinase, AMPK (Homo sapiens) (UniProt P54646+O43741+P54619+Q9UGJ0+Q9Y478+Q13131+Q9UGI9). In words: Inhibition of AMPK (unknown origin) at 500 nM relative to control. Type of series: protein-complex assay.
Series [12] has as its target T1, MAP kinase-interacting serine/threonine-protein kinase 1. Description: Inhibition of MNK1 (unknown origin) at 500 nM relative to control.
Target sequence in this assay (Q9BUB5 whole entry, looked up, the tested form may be a part): as the sequence (Q9BUB5 whole entry, the tested form may be a part) above
In series [13] the target is Tyrosine-protein kinase JAK1 (Homo sapiens) (UniProt P23458). Description: Inhibition of JAK1 (unknown origin) at 500 nM relative to control.
Sequence of Tyrosine-protein kinase JAK1 (Homo sapiens) (P23458 whole entry): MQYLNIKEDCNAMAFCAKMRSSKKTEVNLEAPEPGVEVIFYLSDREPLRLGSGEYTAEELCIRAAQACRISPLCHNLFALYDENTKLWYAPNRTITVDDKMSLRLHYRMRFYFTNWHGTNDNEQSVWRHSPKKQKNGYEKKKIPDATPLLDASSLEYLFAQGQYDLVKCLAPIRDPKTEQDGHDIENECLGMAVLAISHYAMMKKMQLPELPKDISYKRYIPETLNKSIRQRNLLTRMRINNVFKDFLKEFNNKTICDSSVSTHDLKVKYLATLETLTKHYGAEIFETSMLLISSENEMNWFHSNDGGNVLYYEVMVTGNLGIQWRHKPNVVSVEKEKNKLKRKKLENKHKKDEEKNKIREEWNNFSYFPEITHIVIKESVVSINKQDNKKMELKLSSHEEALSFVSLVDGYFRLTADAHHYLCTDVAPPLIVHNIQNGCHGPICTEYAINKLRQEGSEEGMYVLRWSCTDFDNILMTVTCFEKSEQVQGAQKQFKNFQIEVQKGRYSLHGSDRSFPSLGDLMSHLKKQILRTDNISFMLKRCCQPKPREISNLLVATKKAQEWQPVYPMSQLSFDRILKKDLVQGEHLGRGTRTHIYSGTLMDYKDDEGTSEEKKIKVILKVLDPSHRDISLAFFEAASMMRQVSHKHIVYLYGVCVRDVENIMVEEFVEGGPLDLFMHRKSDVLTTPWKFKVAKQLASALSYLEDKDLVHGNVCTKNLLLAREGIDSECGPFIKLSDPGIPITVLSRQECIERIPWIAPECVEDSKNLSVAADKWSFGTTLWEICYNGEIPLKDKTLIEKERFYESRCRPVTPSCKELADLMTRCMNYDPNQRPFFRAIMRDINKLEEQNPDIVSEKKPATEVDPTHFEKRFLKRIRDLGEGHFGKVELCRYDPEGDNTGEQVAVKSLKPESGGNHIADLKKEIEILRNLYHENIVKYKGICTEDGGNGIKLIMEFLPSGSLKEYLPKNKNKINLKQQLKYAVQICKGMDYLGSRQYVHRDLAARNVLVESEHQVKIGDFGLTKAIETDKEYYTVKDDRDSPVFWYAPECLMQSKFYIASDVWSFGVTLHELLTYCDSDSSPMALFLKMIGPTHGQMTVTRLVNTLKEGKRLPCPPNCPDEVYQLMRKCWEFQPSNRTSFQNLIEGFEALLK
In series [14] the target is Cyclin-dependent kinase 2 (Homo sapiens) (UniProt P24941). Description: Inhibition of CDK2 (unknown origin) at 500 nM relative to control.
The target of series [15] is Receptor-type tyrosine-protein kinase FLT3 (Homo sapiens) (UniProt P36888). Description: Inhibition of FLT3 (unknown origin) at 500 nM relative to control.
Sequence of Receptor-type tyrosine-protein kinase FLT3 (Homo sapiens) (P36888 whole entry): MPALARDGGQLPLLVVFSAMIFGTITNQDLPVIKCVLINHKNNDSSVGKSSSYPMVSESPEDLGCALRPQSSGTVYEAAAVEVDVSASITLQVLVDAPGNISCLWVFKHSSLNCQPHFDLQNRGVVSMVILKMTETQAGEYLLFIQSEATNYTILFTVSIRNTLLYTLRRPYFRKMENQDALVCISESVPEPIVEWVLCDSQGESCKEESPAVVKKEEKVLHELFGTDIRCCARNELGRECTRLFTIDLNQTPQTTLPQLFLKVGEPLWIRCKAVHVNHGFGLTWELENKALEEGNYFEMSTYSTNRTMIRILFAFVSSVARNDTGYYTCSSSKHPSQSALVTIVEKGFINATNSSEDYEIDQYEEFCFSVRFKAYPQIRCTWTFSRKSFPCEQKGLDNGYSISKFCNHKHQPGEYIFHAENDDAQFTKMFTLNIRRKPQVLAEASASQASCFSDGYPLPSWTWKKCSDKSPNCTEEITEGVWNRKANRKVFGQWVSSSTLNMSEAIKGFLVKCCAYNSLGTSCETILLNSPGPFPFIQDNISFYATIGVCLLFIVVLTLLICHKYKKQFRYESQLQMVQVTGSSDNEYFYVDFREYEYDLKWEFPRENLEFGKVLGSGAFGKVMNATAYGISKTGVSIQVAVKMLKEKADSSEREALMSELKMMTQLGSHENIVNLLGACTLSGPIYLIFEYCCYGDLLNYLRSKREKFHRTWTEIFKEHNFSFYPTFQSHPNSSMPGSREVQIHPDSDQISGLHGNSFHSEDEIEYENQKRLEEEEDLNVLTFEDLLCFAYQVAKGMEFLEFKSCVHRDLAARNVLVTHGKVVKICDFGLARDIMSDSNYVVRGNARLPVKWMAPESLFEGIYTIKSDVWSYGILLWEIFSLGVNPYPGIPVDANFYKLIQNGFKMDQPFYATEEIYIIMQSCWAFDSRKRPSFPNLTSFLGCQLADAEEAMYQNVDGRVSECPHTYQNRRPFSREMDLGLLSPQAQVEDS
The target in series [16] is T3, MAP kinase-interacting serine/threonine-protein kinase 1/2 (Homo sapiens). In words: Inhibition of MNK1/MNK2 in […] cells assessed as reduction in eIF4E level at 0.25 to 1 incubated for 24 hrs by Western blot analysis. It is filed as cell-based. The note with it: dose microM 0.25-1, time 24.0 hrs.
Series [17] addresses Macrophage colony-stimulating factor 1 receptor (Homo sapiens) (UniProt P07333). Description: Inhibition of CSF1R (unknown origin) at 500 nM relative to control.
For series [18], the target named is T2, MAP kinase-interacting serine/threonine-protein kinase 2. In words: Inhibition of MNK2 (unknown origin) at 500 nM relative to control.
Target sequence in this assay (Q9HBH9 whole entry, looked up, the tested form may be a part): as the sequence (Q9HBH9 whole entry, the tested form may be a part) above
The target in series [19] is T3, MAP kinase-interacting serine/threonine-protein kinase 1/2 (Homo sapiens). Description: Inhibition of MNK1/MNK2 in […] cells assessed as reduction in eIF4E phosphorylation at 1 uM incubated for 24 hrs by Western blot analysis relative to control. It is filed as cell-based.
Series [20] addresses T4, Interleukin-1 receptor-associated kinase 4 (Homo sapiens) (UniProt Q9NWZ3).
T4 sequence (whole entry): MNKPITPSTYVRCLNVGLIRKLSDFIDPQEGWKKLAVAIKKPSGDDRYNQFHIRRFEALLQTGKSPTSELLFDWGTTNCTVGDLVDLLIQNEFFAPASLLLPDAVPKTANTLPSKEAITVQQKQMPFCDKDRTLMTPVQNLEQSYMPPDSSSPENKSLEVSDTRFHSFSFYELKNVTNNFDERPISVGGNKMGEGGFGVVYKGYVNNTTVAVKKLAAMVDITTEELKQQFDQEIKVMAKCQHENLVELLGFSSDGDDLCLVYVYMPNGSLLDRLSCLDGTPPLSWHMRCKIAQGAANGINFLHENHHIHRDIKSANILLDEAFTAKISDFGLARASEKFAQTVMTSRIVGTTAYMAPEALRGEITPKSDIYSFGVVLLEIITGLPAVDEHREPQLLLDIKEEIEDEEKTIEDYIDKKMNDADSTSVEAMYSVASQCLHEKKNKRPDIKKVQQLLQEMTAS
In words: Inhibition of IRAK4 (unknown origin) at 500 nM relative to control.

Series [21] addresses Cyclin-dependent kinase 1 (Homo sapiens) (UniProt P06493). In words: Inhibition of CDK1 (unknown origin) at 500 nM relative to control.
For another series, the system named is CT26. In words: Antitumor activity against […] cells xenografted in BALB/c mouse assessed as tumor growth inhibition dosed ip for 14 days. It is filed as functional, organism-based. The following applies: time 14.0 day.
Series [22] can be described thus: Toxicity in BALB/c mouse xenografted with […] cells assessed as weight loss at 20 to 40 mg/kg, ip administered for 14 days. It is filed as organism-based. The note with it: in vivo, 336 h, dose 20-40 mg/kg, time 14 day.
A short description of series [23]: Antitumor activity against […] cells xenografted in BALB/c mouse assessed as tumor growth inhibition at 40 mg/kg, ip administered for 14 days relative to control. It is filed as functional. The following applies: 336 h, time 14 day, read-out: TGI.

Sequence of Cyclin-dependent kinase 1 (Homo sapiens) (P06493 whole entry, looked up): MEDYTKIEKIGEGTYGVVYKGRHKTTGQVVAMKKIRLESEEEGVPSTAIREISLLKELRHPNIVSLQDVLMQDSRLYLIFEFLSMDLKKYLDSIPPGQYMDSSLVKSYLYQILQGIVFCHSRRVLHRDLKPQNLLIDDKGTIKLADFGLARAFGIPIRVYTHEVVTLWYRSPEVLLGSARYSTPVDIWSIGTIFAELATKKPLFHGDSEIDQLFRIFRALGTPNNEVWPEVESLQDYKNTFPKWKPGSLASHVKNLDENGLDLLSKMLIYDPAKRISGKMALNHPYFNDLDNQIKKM

On to `Cc1cc(Nc2cc(N3CCN(CCN(C)C)CC3)ncn2)c(=O)n2c1C(=O)NC21CCCCC1`, for which the IC50 – broadly, the point on the concentration scale where inhibition reaches its midpoint – with K562 is 13000 nM; in series [1], 8.7 nM; in series [2], 7.5 nM; with TMD8, 1920 nM; in the series with MV4-11 it was 9640 nM. For the same molecule, the Ratio IC50 in [3] and in [7] was 2 in each case. The inhibition (usually the relative decrease from the control value, in per cent) at 20 µM in the series on A549 stood at 48.4%; in the series on MDA-MB-435, 35.2%; in series [4] it was 40.5%; in the series with HCT-116, 30.5%. The inhibition in [5] came to 77.2%; in [6], 89%.
Regarding `Cc1cc(Nc2cc(N)ncn2)c(=O)n2c1C(=O)NC21CCCCC1` [TOMIVOSERTIB], the IC50 was determined as 13500 nM in the series on K562, 2530 nM with TMD8 and 14500 nM in the series on MV4-11. In addition, the inhibition at 20 µM stood at 40.6% in the series with A549, 49.2% in the series with MDA-MB-435, 43.1% in series [4] and 52.7% in the series on HCT-116. Further, the inhibition in series [5] worked out at 87.8%; in series [6], 98.8%. The inhibition in vivo at 20 mg/kg in [8] was found to be 59%.
In the case of `Cc1cc(Nc2cc(N3CCN(CCCN(C)C)CC3)ncn2)c(=O)n2c1C(=O)NC21CCCCC1`, the IC50 in the series with K562 was determined as 11700 nM; in [1], 7 nM; in series [2] it was 6.1 nM; in the series on TMD8 it was 910 nM; in the series on MV4-11, 10000 nM. In addition, the inhibition in series [9] was 3%; in series [10], “Dose-dependent effect”; in [11] it was 11%; in series [12], 96%; in series [13], 6%; in series [14], 7%. Moreover, the inhibition in series [15] was 9%; in series [17], 6%; in series [18], 103%; in [5], 76.5%; in series [19] it was 100%; in series [6], 91.2%. Moreover, the inhibition in series [20] was 21%; in series [21], 4%. The inhibition result in series [16] was “inactive”. For the same molecule, the Ratio IC50 in series [3] and in [7] was 2 each time. Moreover, the inhibition at 20 µM with A549 is 41.3%; in the series with MDA-MB-435, 49%; in series [4], 58.3%; in the series on HCT-116 it was 42.9%. The TGI result with CT26 is “Dose-dependent effect”. Further, the inhibition in vivo at 20 mg/kg in series [8] turned out to be 41.4%. In addition, the Activity entry in series [22] is listed as “Non-Toxic”. Besides, in series [23], the inhibition in vivo at 40 mg/kg is 60.4%.
